Reference: ChEMBL document CHEMBL1201862, “PubChem BioAssay data set” (2004)
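Protocol summary: plate cells (96-well), add compound at 5 concentrations, incubate 48 h, interpolate endpoints linearly. At the GI50, growth is halved.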 Calls of active or inactive are those of the source. Cut-off read from the data, not from the text of the source: active = GI50 up to about 1.1 µM and inactive = higher.

Columns and labels:
Experiment in all cases: NCI tumour cell line growth inhibition, 48 h
SK-MEL-5 = system: SK-MEL-5
U-251 = system: U-251
OVCAR-5 = system: OVCAR-5
MOLT-4 = system: MOLT-4
PC-3 = system: PC-3
OVCAR-4 = system: OVCAR-4
K562 = system: K562
TK-10 = system: TK-10
SNB-75 = system: SNB-75
MDA-MB-435 = system: MDA-MB-435
SF-268 = system: SF-268
HOP-62 = system: HOP-62
HCT-116 = system: HCT-116
CCRF-CEM = system: CCRF-CEM
OVCAR-3 = system: OVCAR-3
NCI-H23 = system: NCI-H23
RPMI-8226 = system: RPMI-8226
KM12 = system: KM12
MDA-MB-231 = system: MDA-MB-231
HCC 2998 = system: HCC 2998

Measured: GI50

Cc1ccc(S(=O)(=O)N/N=C2/C3C(CC2(C)C)C2(C)CCCC3(C)C2O)cc1 (stereo not given)
inactive: SK-MEL-5 15.5 µM | U-251 16.3 µM | OVCAR-5 > 10 µM | MOLT-4 12.9 µM | PC-3 9.59 µM | OVCAR-4 19.1 µM | K562 23.9 µM | TK-10 36 µM | SNB-75 17.7 µM | MDA-MB-435 > 10 µM | SF-268 30.5 µM | HOP-62 30.1 µM | HCT-116 18.7 µM | CCRF-CEM 16.8 µM | OVCAR-3 34.4 µM | NCI-H23 22.8 µM | RPMI-8226 35.6 µM | KM12 18.3 µM

CCSC1=N/C(=C\c2ccco2)C(Cl)=N1
inactive: SK-MEL-5 > 100 µM | U-251 > 100 µM | OVCAR-5 > 100 µM | MOLT-4 > 100 µM | PC-3 > 100 µM | K562 > 100 µM | TK-10 > 100 µM | SNB-75 > 100 µM | MDA-MB-231 > 100 µM | MDA-MB-435 > 100 µM | SF-268 > 100 µM | HOP-62 > 100 µM | HCT-116 > 100 µM | CCRF-CEM > 100 µM | OVCAR-3 > 100 µM | NCI-H23 > 100 µM | RPMI-8226 > 100 µM | KM12 > 100 µM

O=C1c2ccccc2C(=O)c2nc3ccc(Cl)cc3cc21
inactive: SK-MEL-5 > 100 µM | U-251 > 100 µM | OVCAR-5 > 100 µM | MOLT-4 > 100 µM | OVCAR-4 > 100 µM | HCC 2998 > 100 µM | K562 > 100 µM | TK-10 > 100 µM | SNB-75 > 100 µM | SF-268 > 100 µM | HOP-62 > 100 µM | HCT-116 > 100 µM | CCRF-CEM > 100 µM | OVCAR-3 > 100 µM | NCI-H23 > 100 µM | RPMI-8226 > 100 µM | KM12 > 100 µM

COC(=O)c1ccccc1C1CN=NC12Cc1c(C)cccc1C2=O (stereo not given)
inactive: SK-MEL-5 90.2 µM | U-251 80.7 µM | OVCAR-5 71.8 µM | MOLT-4 69.5 µM | OVCAR-4 > 100 µM | HCC 2998 > 100 µM | K562 > 100 µM | TK-10 > 100 µM | SNB-75 94.4 µM | MDA-MB-231 > 100 µM | MDA-MB-435 > 100 µM | SF-268 > 100 µM | HOP-62 > 100 µM | HCT-116 69.2 µM | CCRF-CEM > 100 µM | OVCAR-3 > 100 µM | NCI-H23 > 100 µM | RPMI-8226 > 100 µM | KM12 > 100 µM

COCC1OC(N2C(=O)NC(=O)[C@@H]3C=C4CCCCC4=C[C@@H]32)C(OC)C1OC (stereo not given in full)
inactive: U-251 > 100 µM | OVCAR-5 > 100 µM | MOLT-4 > 100 µM | PC-3 > 100 µM | OVCAR-4 > 100 µM | K562 > 100 µM | TK-10 > 100 µM | SNB-75 > 100 µM | MDA-MB-231 > 100 µM | MDA-MB-435 > 100 µM | SF-268 > 100 µM | HOP-62 > 100 µM | HCT-116 > 100 µM | OVCAR-3 > 100 µM | RPMI-8226 > 100 µM | KM12 > 100 µM

NS(=O)(=O)c1cc2c(cc1Cl)N=C(CCC(=O)O)NS2(=O)=O
inactive: SK-MEL-5 > 100 µM | U-251 > 100 µM | OVCAR-5 > 100 µM | PC-3 > 100 µM | OVCAR-4 > 100 µM | K562 > 100 µM | TK-10 > 100 µM | SNB-75 > 100 µM | MDA-MB-231 > 100 µM | MDA-MB-435 > 100 µM | SF-268 > 100 µM | HOP-62 > 100 µM | HCT-116 > 100 µM | OVCAR-3 > 100 µM | NCI-H23 > 100 µM | RPMI-8226 > 100 µM | KM12 > 100 µM
